# According to ChEMBL document CHEMBL2029229, “Structure-activity relationship of a series of non peptidic RGD integrin antagonists targeting α5β1: part 1” (Bioorg Med Chem Lett, 2012):
# What was measured:
# Integrin alpha-5/beta-1 [1] = molecular target: T1, Integrin alpha-5/beta-1 (Homo sapiens, UniProt P05556+P08648); test: Antagonist activity at integrin alpha5beta1 in human K562 cells assessed as inhibition of cell adhesion in presence of 630 uM human serum albumin; format: functional, cell-based
# T1 sequence (P05556 21-798 limits assumed): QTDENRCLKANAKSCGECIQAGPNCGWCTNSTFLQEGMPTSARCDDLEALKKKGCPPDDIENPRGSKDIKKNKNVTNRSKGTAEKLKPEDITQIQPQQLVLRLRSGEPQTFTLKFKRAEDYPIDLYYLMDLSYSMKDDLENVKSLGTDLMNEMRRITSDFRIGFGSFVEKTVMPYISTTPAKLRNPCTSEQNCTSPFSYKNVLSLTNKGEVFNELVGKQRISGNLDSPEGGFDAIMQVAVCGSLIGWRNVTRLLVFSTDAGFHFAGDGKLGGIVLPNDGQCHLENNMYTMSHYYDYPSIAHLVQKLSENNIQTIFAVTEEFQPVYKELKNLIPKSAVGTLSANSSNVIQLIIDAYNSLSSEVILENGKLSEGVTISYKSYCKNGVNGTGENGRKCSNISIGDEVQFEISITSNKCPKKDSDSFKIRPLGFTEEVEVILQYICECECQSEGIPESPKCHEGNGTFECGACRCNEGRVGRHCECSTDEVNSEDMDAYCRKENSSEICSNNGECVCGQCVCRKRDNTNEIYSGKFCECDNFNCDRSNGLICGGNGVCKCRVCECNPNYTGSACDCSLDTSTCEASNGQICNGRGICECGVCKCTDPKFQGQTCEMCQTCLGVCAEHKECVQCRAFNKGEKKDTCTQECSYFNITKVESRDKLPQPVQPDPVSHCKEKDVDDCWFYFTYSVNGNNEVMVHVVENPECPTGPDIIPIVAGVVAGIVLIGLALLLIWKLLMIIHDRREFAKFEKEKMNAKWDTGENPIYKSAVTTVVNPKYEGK
# T1 sequence (P08648 42-894 limits assumed): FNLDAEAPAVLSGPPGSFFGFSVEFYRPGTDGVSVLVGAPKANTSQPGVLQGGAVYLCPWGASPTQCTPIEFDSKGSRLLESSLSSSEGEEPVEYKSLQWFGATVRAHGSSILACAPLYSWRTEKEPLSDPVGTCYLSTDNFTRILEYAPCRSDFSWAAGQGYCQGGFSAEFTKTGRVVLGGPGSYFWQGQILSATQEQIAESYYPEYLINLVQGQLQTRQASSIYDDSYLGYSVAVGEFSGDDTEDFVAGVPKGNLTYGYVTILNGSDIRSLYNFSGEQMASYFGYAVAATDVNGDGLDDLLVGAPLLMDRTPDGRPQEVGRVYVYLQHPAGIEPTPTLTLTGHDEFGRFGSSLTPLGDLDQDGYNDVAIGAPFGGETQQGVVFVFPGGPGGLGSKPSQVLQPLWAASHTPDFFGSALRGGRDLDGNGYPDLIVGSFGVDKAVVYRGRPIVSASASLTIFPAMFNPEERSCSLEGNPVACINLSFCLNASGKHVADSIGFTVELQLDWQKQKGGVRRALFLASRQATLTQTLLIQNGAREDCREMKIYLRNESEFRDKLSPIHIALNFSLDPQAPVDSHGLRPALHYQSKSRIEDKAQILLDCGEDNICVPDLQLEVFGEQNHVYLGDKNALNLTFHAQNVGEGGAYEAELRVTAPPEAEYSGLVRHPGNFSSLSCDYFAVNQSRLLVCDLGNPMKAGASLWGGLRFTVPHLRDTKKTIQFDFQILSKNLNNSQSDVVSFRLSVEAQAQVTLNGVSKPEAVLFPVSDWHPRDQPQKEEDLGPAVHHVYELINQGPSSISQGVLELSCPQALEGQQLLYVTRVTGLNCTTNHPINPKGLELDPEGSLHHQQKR
# T1 sequence (P08648 895-1049 limits assumed): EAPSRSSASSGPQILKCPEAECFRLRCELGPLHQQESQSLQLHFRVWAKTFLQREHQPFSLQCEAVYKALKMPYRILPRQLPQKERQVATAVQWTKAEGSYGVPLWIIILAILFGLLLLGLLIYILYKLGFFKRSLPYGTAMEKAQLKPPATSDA
# Integrin alpha-5/beta-1 [2] = molecular target: T1, Integrin alpha-5/beta-1; test: Binding affinity to integrin alpha5beta1; format: protein-complex assay
# Integrin alpha-5/beta-1 [3] = molecular target: T1, Integrin alpha-5/beta-1; test: Antagonist activity at integrin alpha5beta1 in human K562 cells assessed as inhibition of cell adhesion; format: functional, cell-based
# [4] = molecular target: Integrin alpha-IIb/beta-3 (Homo sapiens, UniProt P05106+P08514); test: Inhibition of integrin alpha2b beta3; format: protein-complex assay
# Chain of Integrin alpha-IIb/beta-3 (P05106 27-788 limits assumed): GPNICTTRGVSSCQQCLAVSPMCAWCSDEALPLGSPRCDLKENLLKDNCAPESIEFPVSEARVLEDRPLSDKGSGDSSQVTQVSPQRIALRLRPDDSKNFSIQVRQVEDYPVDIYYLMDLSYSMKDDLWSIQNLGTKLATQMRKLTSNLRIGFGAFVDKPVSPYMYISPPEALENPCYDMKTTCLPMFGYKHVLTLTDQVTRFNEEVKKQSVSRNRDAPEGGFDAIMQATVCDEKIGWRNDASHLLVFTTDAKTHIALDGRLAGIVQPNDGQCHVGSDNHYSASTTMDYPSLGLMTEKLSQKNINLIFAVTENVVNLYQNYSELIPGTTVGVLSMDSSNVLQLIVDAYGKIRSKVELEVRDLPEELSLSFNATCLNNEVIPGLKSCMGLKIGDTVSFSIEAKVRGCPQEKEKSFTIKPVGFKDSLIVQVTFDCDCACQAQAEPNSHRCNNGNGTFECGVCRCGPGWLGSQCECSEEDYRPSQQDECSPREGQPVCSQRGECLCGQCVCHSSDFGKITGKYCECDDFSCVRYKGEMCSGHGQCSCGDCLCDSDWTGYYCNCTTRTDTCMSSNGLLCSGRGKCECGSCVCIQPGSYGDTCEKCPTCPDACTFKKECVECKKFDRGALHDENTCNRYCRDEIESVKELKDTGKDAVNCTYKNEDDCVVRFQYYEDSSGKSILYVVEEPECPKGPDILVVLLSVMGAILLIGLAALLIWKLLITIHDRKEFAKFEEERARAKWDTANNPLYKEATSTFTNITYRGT
# Chain of Integrin alpha-IIb/beta-3 (P08514 32-887 limits assumed): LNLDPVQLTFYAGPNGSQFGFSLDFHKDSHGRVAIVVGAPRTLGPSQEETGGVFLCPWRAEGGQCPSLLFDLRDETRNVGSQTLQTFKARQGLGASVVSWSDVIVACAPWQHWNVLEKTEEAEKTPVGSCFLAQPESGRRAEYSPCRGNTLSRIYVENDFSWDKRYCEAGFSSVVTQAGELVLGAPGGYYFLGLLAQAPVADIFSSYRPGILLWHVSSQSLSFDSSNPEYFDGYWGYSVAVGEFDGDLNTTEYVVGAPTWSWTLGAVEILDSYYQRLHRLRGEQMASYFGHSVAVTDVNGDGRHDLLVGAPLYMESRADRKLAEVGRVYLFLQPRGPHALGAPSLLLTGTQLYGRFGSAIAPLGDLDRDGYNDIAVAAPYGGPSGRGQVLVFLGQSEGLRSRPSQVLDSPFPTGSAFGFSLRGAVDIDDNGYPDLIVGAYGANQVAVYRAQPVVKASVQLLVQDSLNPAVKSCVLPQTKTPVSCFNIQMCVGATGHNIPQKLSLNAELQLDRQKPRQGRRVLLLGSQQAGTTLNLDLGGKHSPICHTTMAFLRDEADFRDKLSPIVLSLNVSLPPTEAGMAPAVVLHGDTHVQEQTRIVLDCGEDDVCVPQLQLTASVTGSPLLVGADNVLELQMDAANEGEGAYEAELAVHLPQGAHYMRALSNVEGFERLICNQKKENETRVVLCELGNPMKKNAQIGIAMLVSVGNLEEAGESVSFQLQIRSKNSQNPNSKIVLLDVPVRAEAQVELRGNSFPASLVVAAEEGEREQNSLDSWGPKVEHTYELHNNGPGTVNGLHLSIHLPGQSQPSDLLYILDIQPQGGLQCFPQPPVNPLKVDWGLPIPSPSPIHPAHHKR
# Chain of Integrin alpha-IIb/beta-3 (P08514 891-1039 limits assumed): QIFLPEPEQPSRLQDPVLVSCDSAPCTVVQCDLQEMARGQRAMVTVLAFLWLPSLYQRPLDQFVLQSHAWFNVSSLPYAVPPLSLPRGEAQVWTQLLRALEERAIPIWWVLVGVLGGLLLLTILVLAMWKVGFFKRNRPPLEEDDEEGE
# [5] = Fraction unbound in rat plasma; format: ADME, cell-free
# A375M = test: Selectivity ratio of IC50 for integrin alphavbeta3alpha5beta1-mediated human A375M cells adhesion to fibronectin in absence of MK-0429 to IC50 for integrin alpha5beta1-mediated human A375M cells adhesion to fibronectin in presence of MK-0429; format: cell-based
# Integrin alpha-V/beta-3 = Integrin alpha-V/beta-3 (Homo sapiens, UniProt P05106+P06756); test: Antagonist activity at integrin alphavbeta3 in human A375M cells assessed as inhibition of cell adhesion to fibrinogen in presence of Mg2+; format: functional, cell-based
# Chain of Integrin alpha-V/beta-3 (P05106 27-788 limits assumed): as the sequence (P05106 27-788 limits assumed) above
# Chain of Integrin alpha-V/beta-3 (P06756 31-889 limits assumed): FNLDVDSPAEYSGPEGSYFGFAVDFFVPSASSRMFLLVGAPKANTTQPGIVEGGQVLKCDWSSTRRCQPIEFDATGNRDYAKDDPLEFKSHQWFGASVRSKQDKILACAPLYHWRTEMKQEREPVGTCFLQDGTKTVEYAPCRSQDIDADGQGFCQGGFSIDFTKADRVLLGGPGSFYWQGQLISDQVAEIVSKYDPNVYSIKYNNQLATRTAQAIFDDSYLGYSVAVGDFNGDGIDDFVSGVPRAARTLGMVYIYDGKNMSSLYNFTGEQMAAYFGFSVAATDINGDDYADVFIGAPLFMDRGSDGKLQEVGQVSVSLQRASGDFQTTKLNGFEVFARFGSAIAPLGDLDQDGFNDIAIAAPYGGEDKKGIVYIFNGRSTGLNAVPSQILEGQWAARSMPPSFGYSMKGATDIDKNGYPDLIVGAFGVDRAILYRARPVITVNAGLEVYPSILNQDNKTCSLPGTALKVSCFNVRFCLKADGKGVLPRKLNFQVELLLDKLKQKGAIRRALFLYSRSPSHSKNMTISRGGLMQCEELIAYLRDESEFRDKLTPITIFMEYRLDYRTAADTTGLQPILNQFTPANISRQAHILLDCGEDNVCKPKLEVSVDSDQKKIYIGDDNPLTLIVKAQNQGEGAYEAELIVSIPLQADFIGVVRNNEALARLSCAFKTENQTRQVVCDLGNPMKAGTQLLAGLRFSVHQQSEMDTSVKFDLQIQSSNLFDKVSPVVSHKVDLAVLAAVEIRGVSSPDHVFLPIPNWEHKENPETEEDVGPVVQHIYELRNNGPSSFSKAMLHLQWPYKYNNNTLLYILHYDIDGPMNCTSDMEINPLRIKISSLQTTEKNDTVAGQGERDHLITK
# Chain of Integrin alpha-V/beta-3 (P06756 891-1048 limits assumed): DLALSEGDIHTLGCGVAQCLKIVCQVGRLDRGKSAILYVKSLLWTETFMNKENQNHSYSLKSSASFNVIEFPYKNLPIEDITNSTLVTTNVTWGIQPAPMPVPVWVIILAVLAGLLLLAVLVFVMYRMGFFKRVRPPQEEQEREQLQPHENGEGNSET
# [6] = Dissociation constant, pKa of the compound; format: physicochemical
# [7] = molecular target: Fibronectin receptor (Integrin alpha-5/beta-1 and alpha-V/beta-3) (Homo sapiens, UniProt P05106+P05556+P06756+P08648); test: Antagonist activity at integrin alphavbeta3alpha5beta1 in human A375M cells assessed as inhibition of cell adhesion to fibronectin in presence of Mg2+; format: functional, cell-based
# Integrin alpha-5/beta-1 [8] = molecular target: T1, Integrin alpha-5/beta-1; test: Antagonist activity at integrin alpha5beta1 in human A375M cells assessed as inhibition of cell adhesion to fibronectin in presence of Mg2+ and MK-0429; format: functional, cell-based
SMILES,IC50 (Integrin alpha-5/beta-1 [1]) [nM],IC50 (Integrin alpha-5/beta-1 [2]) [nM],IC50 (Integrin alpha-5/beta-1 [3]) [nM],IC50 [4] [nM],fraction unbound [5],Ratio IC50 (A375M),IC50 (Integrin alpha-V/beta-3) [nM],pKa [6],IC50 [7] [nM],IC50 (Integrin alpha-5/beta-1 [8]) [nM]
O=C(N[C@@H](Cc1ccc(CCCc2ccc3c(n2)NCCC3)cc1)C(=O)O)c1c(Cl)cccc1Cl,450,< 1,< 8,> 10000,0.006,–,–,–,–,–
CN(C)c1cccc(CCOc2ccc(C[C@H](NC(=O)c3c(Cl)cccc3Cl)C(=O)O)cc2)n1,–,140,2700,–,–,–,–,–,–,–
O=C(N[C@@H](Cc1ccc(OCCc2ccc3c(n2)NCCC3)cc1)C(=O)O)c1c(Cl)cccc1Cl,29,< 1,< 3,> 10000,0.007,4.5,1,7.6,9,–
CNc1cccc(CCCc2ccc(C[C@H](NC(=O)c3c(Cl)cccc3Cl)C(=O)O)cc2)n1,–,–,–,–,–,–,–,7.6,–,–
O=C(Cc1ccc2c(n1)NCCC2)Nc1ccc(C[C@H](NC(=O)c2c(Cl)cccc2Cl)C(=O)O)cc1,–,3,84,–,–,4,49,–,860,210
O=C(N[C@@H](Cc1ccc(CCCCNc2ccccn2)cc1)C(=O)O)c1c(Cl)cccc1Cl,–,24,1100,–,–,–,–,7.2,–,–
O=C(N[C@@H](Cc1ccc(C#CCCNc2ccccn2)cc1)C(=O)O)c1c(Cl)cccc1Cl,–,69,2100,–,–,–,–,6.7,–,–
Nc1cccc(CCOc2ccc(C[C@H](NC(=O)c3c(Cl)cccc3Cl)C(=O)O)cc2)n1,–,< 1,9,–,–,–,–,–,–,–
O=C(N[C@@H](Cc1ccc(OCCNc2nc3ccccc3[nH]2)cc1)C(=O)O)c1c(Cl)cccc1Cl,–,8,160,–,–,–,–,7.2,–,–
NC(=O)NCCCOc1ccc(C[C@H](NC(=O)c2c(Cl)cccc2Cl)C(=O)O)cc1,–,150,10000,–,–,–,–,–,–,–
CN1CCNc2nc(CCOc3ccc(C[C@H](NC(=O)c4c(Cl)cccc4Cl)C(=O)O)cc3)ccc21,< 56,1,< 8,> 10000,0.015,1.6,23,7.1,250,150
CNc1cccc(CCOc2ccc(C[C@H](NC(=O)c3c(Cl)cccc3Cl)C(=O)O)cc2)n1,–,–,–,–,–,2.4,7,7,–,–
O=C(N[C@@H](Cc1ccc(OCCCCNc2ccccn2)cc1)C(=O)O)c1c(Cl)cccc1Cl,–,54,710,–,–,–,–,–,–,–
CNc1cccc(COCc2ccc(C[C@H](NC(=O)c3c(Cl)cccc3Cl)C(=O)O)cc2)n1,–,220,1400,–,–,–,–,6.4,–,–
O=C(N[C@@H](Cc1ccc(OCCc2cccc(NCC3CC3)n2)cc1)C(=O)O)c1c(Cl)cccc1Cl,–,3,< 41,–,–,–,–,–,–,–
Cc1cc(C)c(C(=O)N[C@@H](CNC(=O)CO[C@@H]2C[C@@H](CNc3ccccn3)N(C(=O)OCc3ccccc3)C2)C(=O)O)c(C)c1,–,–,586,–,–,15,1200,–,3200,200
O=C(N[C@@H](Cc1ccc(OCCc2ccc3c(n2)NCCO3)cc1)C(=O)O)c1c(Cl)cccc1Cl,–,1,10,–,–,2.1,17,6,270,130
CN1CC(CCCOc2ccc(C[C@H](NC(=O)c3c(Cl)cccc3Cl)C(=O)O)cc2)C1,–,360,58000,–,–,–,–,–,–,–
O=C(N[C@@H](Cc1ccc(OCCCNc2ccccn2)cc1)C(=O)O)c1c(Cl)cccc1Cl,–,–,–,–,–,4,84,7.1,–,–
O=C(N[C@@H](Cc1ccc(OCCc2cccc(NC3CCCC3)n2)cc1)C(=O)O)c1c(Cl)cccc1Cl,–,83,320,–,–,–,–,6.8,–,–
O=C(NCc1ccc2c(n1)NCCC2)c1ccc(C[C@H](NC(=O)c2c(Cl)cccc2Cl)C(=O)O)cc1,–,5,120,–,–,5.9,350,6.8,8400,1400
O=C(N[C@@H](Cc1ccc(OCCNc2ccccn2)cc1)C(=O)O)c1c(Cl)cccc1Cl,–,–,–,–,–,–,–,6.7,–,–
O=C(N[C@@H](Cc1ccc(OCCNc2nc3ccccc3s2)cc1)C(=O)O)c1c(Cl)cccc1Cl,–,970,2400,–,–,–,–,4.3,–,–
